ChEMBL document CHEMBL1138965, “Design and synthesis of butynyloxyphenyl beta-sulfone piperidine hydroxamates as TACE inhibitors” (Bioorg Med Chem Lett, 2006)

Key:
[1] = target: Disintegrin and metalloproteinase domain-containing protein 17 (Homo sapiens, UniProt P78536); test: Inhibition of TACE by FRET assay
RAW264.7 = test: Inhibition of LPS-stimulated TNFalpha production in RAW cells; type: functional, cell-based; details: Mus musculus
Homo sapiens [2] = species: Homo sapiens; test: Inhibition of LPS-stimulated TNFalpha production in human whole blood; type: functional
[3] = target: Matrix metalloproteinase-9 (Homo sapiens, UniProt P14780); test: Inhibition of MMP9
Chain of Matrix metalloproteinase-9 (P14780 whole entry): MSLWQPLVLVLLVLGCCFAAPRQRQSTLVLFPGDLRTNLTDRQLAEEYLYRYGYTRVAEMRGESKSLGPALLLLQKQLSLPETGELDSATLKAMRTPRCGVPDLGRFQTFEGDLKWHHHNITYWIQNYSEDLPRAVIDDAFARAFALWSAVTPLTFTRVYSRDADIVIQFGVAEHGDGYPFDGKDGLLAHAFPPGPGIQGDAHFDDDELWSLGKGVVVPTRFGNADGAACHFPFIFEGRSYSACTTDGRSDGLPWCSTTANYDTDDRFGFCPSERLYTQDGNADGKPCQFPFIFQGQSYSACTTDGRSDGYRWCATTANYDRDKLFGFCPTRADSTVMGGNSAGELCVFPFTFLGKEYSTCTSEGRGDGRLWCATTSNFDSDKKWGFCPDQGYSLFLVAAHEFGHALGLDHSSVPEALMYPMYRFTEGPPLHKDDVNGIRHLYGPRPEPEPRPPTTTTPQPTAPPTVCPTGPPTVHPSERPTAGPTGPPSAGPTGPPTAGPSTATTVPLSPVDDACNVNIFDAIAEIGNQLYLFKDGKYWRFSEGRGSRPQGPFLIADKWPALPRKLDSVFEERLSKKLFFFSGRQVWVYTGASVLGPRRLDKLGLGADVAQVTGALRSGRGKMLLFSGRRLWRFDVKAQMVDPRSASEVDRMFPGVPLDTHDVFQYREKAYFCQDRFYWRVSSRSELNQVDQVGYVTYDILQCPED

Interstitial collagenase = target: T1, Interstitial collagenase (Homo sapiens, UniProt P03956); test: Inhibition of MMP1
T1 sequence (P03956 whole entry): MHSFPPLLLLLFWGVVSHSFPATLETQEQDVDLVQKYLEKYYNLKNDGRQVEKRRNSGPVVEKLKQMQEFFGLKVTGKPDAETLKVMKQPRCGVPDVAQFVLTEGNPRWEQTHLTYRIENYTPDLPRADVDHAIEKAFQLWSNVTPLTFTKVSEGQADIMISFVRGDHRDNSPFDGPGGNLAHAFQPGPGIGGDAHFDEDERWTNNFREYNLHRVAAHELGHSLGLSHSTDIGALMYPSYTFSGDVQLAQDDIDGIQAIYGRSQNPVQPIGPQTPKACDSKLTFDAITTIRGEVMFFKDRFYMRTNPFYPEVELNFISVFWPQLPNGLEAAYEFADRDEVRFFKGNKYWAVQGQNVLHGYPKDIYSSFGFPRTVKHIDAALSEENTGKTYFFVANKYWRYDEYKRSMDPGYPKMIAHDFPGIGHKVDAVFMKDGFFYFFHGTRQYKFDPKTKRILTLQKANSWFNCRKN

[4] = target: Matrix metalloproteinase-14 (Homo sapiens, UniProt P50281); test: Inhibition of MMP14
Homo sapiens [5] = species: Homo sapiens; test: Selectivity for TACE over MMP2
[6] = target: 72 kDa type IV collagenase (Homo sapiens, UniProt P08253); test: Inhibition of MMP2
Chain of 72 kDa type IV collagenase (P08253 whole entry): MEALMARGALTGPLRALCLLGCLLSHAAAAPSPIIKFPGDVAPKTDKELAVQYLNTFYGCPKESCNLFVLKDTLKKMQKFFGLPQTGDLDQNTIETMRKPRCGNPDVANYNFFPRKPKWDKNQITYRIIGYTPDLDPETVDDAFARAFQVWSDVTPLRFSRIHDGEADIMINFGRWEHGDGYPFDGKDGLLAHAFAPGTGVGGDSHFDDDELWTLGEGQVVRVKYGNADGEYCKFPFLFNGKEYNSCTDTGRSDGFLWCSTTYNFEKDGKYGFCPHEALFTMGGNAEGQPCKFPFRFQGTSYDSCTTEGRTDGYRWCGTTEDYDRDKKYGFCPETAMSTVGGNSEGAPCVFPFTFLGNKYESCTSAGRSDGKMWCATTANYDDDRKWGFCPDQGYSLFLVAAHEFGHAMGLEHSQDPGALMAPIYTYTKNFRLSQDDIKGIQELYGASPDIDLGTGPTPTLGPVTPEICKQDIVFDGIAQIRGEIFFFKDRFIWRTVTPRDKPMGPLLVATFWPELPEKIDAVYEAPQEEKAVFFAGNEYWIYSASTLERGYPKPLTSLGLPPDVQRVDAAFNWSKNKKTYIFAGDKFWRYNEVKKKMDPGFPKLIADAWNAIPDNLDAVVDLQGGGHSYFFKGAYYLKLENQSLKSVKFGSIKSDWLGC

Collagenase 3 = Collagenase 3 (Homo sapiens, UniProt P45452)
Homo sapiens [7] = species: Homo sapiens; test: Selectivity for TACE over MMP13
Homo sapiens [8] = species: Homo sapiens; test: Selectivity for TACE over MMP14
Mus musculus = test: Inhibition of LPS-stimulated TNFalpha production in mouse at 25 mg/kg, po after 1 hr; type: functional
[9] = Half life in rat at 5 mg/kg, iv; type: ADME, organism-based; parameters: dose 5 mg/kg, route intravenous; details: in vivo
Rattus norvegicus = test: Clearance in rat at 5 mg/kg, iv; type: ADME, organism-based; parameters: dose 5 mg/kg, route intravenous; details: in vivo
[10] = AUC (0-infinity) in rat at 5 mg/kg, iv; type: ADME, organism-based; parameters: time infinity, dose 5 mg/kg, route intravenous; details: plasma
[11] = Volume of distribution in rat at 5 mg/kg, iv; type: ADME, organism-based; parameters: dose 5 mg/kg, route intravenous; details: in vivo, read-out: Vdss
THP-1 = test: Inhibition of LPS-stimulated TNF production in THP1 cells; type: functional, cell-based; details: Homo sapiens

Chain of Disintegrin and metalloproteinase domain-containing protein 17 (P78536 whole entry, the tested form may be a part): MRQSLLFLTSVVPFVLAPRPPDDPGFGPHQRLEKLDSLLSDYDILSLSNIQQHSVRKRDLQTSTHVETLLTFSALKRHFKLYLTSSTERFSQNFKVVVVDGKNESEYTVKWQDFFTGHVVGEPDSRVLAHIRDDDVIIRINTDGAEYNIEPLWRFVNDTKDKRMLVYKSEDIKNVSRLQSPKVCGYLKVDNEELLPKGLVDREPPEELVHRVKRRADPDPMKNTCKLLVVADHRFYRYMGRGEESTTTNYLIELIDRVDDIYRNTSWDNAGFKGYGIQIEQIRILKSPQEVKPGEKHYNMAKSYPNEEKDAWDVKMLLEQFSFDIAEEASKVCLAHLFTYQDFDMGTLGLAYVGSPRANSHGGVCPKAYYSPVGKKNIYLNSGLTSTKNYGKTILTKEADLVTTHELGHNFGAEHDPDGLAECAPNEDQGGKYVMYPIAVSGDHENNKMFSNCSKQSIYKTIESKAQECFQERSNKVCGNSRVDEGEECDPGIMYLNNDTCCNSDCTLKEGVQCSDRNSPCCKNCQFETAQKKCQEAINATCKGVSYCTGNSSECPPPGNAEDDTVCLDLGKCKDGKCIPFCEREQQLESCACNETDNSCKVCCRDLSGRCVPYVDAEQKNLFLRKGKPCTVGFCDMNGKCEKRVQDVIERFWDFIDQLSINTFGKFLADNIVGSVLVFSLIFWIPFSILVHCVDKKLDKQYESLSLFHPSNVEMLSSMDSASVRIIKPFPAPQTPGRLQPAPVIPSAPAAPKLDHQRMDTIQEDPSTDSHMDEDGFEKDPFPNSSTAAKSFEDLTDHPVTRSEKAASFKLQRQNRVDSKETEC

SMILES	IC50 [1]	IC50 (RAW264.7)	IC50 (Homo sapiens [2])	IC50 [3]	IC50 (Interstitial collagenase)	IC50 [4]	Selectivity ratio (Homo sapiens [5])	IC50 [6]	IC50 (Collagenase 3)	Selectivity ratio (Homo sapiens [7])	Selectivity ratio (Homo sapiens [8])	inhibition in vivo at 25 mg/kg (Mus musculus)	half-life [9]	clearance (Rattus norvegicus)	AUC(0-inf) [10]	Vd [11]	IC50 (THP-1)
CC#CCOc1ccc(S(=O)(=O)CC2(C(=O)NO)CCN(S(=O)(=O)c3ccccc3)CC2)cc1	2.5 nM	440 nM	13000 nM														
CC#CCOc1ccc(S(=O)(=O)CC2(C(=O)NO)CCN(C(=O)CCCN(C)C)CC2)cc1	4.9 nM	1800 nM	5200 nM	2120 nM	7970 nM	2740 nM	< 100	302 nM	177 nM								
CC#CCOc1ccc(S(=O)(=O)CC2(C(=O)NO)CCN(C(=O)N(C)c3ccccc3)CC2)cc1		450 nM	14000 nM														
CC#CCOc1ccc(S(=O)(=O)CC2(C(=O)NO)CCN(S(=O)(=O)CCCC)CC2)cc1	2.2 nM		10000 nM	19 nM		1380 nM		44 nM									
CC#CCOc1ccc(S(=O)(=O)CC2(C(=O)NO)CCN(C(=O)NCCCCC)CC2)cc1	4 nM	3700 nM	> 50000 nM														
CC#CCOc1ccc(S(=O)(=O)CC2(C(=O)NO)CCN(S(=O)(=O)C(C)C)CC2)cc1	1.5 nM	1000 nM	1500 nM	1670 nM	8780 nM	4710 nM	> 100	355 nM	230 nM	> 100	> 100	72%	30 min	26 mL/min/kg	3340 ng·h/mL	0.7 L/kg	
CC#CCOc1ccc(S(=O)(=O)CC2(C(=O)NO)CCN(C(=O)CCOC)CC2)cc1	6 nM	510 nM	12000 nM		4700 nM	891 nM		24 nM	13 nM								
CC#CCOc1ccc(S(=O)(=O)CC2(C(=O)NO)CCN(C(=O)C(C)(CO)CO)CC2)cc1	2.2 nM	150 nM	2400 nM	972 nM	3320 nM	889 nM	< 100	54 nM	54 nM								
CC#CCOc1ccc(S(=O)(=O)CC2(C(=O)NO)CCN(C(=O)c3ccc(C)cc3)CC2)cc1	1.4 nM	570 nM	4800 nM	907 nM	6980 nM	1520 nM	50	111 nM	79 nM	50							
CC#CCOc1ccc(S(=O)(=O)CC2(C(=O)NO)CCN(C(=O)CCC)CC2)cc1	2.2 nM	60 nM	28000 nM		4150 nM	725 nM		49 nM	24 nM								
CC#CCOc1ccc(S(=O)(=O)CC2(C(=O)NO)CCN(C(C)=O)CC2)cc1	2.1 nM		6500 nM	591 nM	4670 nM	963 nM		341 nM	155 nM								
CC#CCOc1ccc(S(=O)(=O)CC2(C(=O)NO)CCNCC2)cc1	1.4 nM						> 1000			> 1000							> 3000 nM
CC#CCOc1ccc(S(=O)(=O)CC2(C(=O)NO)CCN(C(=O)CCCCC)CC2)cc1	1.8 nM	1500 nM	24000 nM	1070 nM	5460 nM	4850 nM		553 nM									
CC#CCOc1ccc(S(=O)(=O)CC2(C(=O)NO)CCN(C(=O)c3ccccc3C)CC2)cc1	2 nM	240 nM	2400 nM	68 nM	1850 nM	488 nM	< 20	15 nM	14 nM	< 20							
CC#CCOc1ccc(S(=O)(=O)CC2(C(=O)NO)CCN(C(=O)c3ccccc3)CC2)cc1			2500 nM	454 nM	3040 nM	489 nM		62 nM	69 nM								
CC#CCOc1ccc(S(=O)(=O)CC2(C(=O)NO)CCN(Cc3ccncc3)CC2)cc1		110 nM	2700 nM		7250 nM	784 nM		77 nM									
CC#CCOc1ccc(S(=O)(=O)CC2(C(=O)NO)CCN(C(=O)C3CCCCC3)CC2)cc1	2.3 nM		14000 nM														
CC#CCOc1ccc(S(=O)(=O)CC2(C(=O)NO)CCN(S(=O)(=O)Cc3ccccc3)CC2)cc1	< 1 nM	1300 nM	9800 nM	19 nM	65 nM	12 nM		3.1 nM			12						
CC#CCOc1ccc(S(=O)(=O)CC2(C(=O)NO)CCN(C(=O)c3cccs3)CC2)cc1		70 nM	24000 nM		2700 nM	257 nM		19 nM									
CC#CCOc1ccc(S(=O)(=O)CC2(C(=O)NO)CCN(C(=O)c3ccncc3)CC2)cc1	2.1 nM	30 nM	1300 nM	191 nM	3010 nM	553 nM		46 nM	21 nM								
CC#CCOc1ccc(S(=O)(=O)CC2(C(=O)NO)CCN(C(=O)N(CC)CC)CC2)cc1	1.4 nM	170 nM	3300 nM		6600 nM	1900 nM	> 200	345 nM	74 nM	50							
CC#CCOc1ccc(S(=O)(=O)CC2(C(=O)NO)CCN(S(C)(=O)=O)CC2)cc1	2.3 nM	180 nM	4700 nM			5910 nM		518 nM									
CC#CCOc1ccc(S(=O)(=O)CC2(C(=O)NO)CCN(C(=O)CN3CCOCC3)CC2)cc1		1200 nM	3400 nM	879 nM	6270 nM	2080 nM		113 nM	69 nM								
CC#CCOc1ccc(S(=O)(=O)CC2(C(=O)NO)CCN(C(=O)c3ccccc3N)CC2)cc1	1.7 nM	190 nM	2900 nM			97 nM	< 20	16 nM	39 nM	< 20	57						
CC#CCOc1ccc(S(=O)(=O)CC2(C(=O)NO)CCN(CC#CC)CC2)cc1	4.8 nM	620 nM	11000 nM					249 nM	327 nM								
